The results in this text go back to patent US20150284394A1, “INHIBITORS OF BRUTON'S TYROSINE KINASE” (HOFFMANN-LA ROCHE INC., priority 2012, published 2015).

Test [1] has as its system B cells in human blood. In words: Inhibition of B cell activation in whole blood measured by CD69 expression. The note with it: anti-IgM stimulation, 20 hours, CD69-positive cells that are also CD20-positive, read-out: HWB IC50. The class given is cell-based. How it is done: A procedure to test the ability of Btk inhibitors to suppress B cell receptor-mediated activation of B cells in human blood is as follows:
Human whole blood (HWB) is obtained from healthy volunteers, with the following restrictions: 24 hr drug-free, non-smokers. Blood is collected by venipuncture into Vacutainer tubes anticoagulated with sodium heparin. Test compounds are diluted to ten times the desired starting drug concentration in PBS (20×), followed by three-fold serial dilutions in 10% DMSO in PBS to produce a nine point dose-response curve. 5.5 μl of each compound dilution is added in duplicate to a 2 ml 96-well V bottom plate (Analytical Sales and Services, #59623-23); 5.5 μl of 10% DMSO in PBS is added to control and no-stimulus wells. HWB (100 μl) is added to each well, and after mixing the plates are incubated at 37 C, 5% CO2, 100% humidity for 30 minutes. Goat F(ab′)2 anti-human IgM (Southern Biotech, #2022-14) (10 μl of a 500 μg/ml solution, 50 μg/ml final concentration) is added to each well (except the no-stimulus wells) with mixing and the plates are incubated for an additional 20 hours.
At the end of the 20 hour incubation, samples are incubated with florescent-probe-labeled anti-bodies (15 μl PE Mouse anti-Human CD20, BD Pharmingen, #555623, and/or 20 ul APC Mouse anti-Human CD69, BD Pharmingen #555533) for 30 minutes, at 37 C, 5% CO2, 100% humidity. Included are induced control, unstained and single stains for compensation adjustments and initial voltage settings. Samples are then lysed with 1 ml of 1× Pharmingen Lyse Buffer (BD Pharmingen #555899), and plates are centrifuged at 1800 rpm for 5 minutes. Supernatants are removed via suction and the remaining pellets are lysed again with another 1 ml of 1× Pharmingen Lyse Buffer, and plates are spun down as before. Supernatants are aspirated and remaining pellets are washed in FACs buffer (PBS+1% FBS). After a final spin, the supernantants are removed and pellets are resuspended in 180 μl of FACs buffer. Samples are transferred to a 96 well plate suitable to be run on the HTS 96 well system on the BD LSR II flow cytometer.
Using appropriate excitation and emission wavelengths for the fluorophores used, data are acquired and percent positive cell values are obtained using Cell Quest Software. Results are initially analyzed by FACS analysis software (Flow Jo). […] The IC50 values are calculated using XLfit software version 3, equation 201.

Test [2] addresses Bruton's Tyrosine Kinase (Homo sapiens, UniProt Q06187). As to the kind of experiment: Bruton's Tyrosine Kinase (BTK) Inhibition TR-FRET competition assay. Format: binding. The note with it: inactivated state of BTK; Kinase Tracer 178; 18-24 h at 14° C. How it is done: This BTK competition assay measures compound potency (IC50) for the inactivated state of Bruton's Tyrosine Kinase using FRET (Forster/Fluorescence Resonance Energy Transfer) technology. The BTK-Eu complex was incubated on ice one hour prior to use at a starting concentration of 50 nM BTK-Bioease™: 10 nM Eu-streptavidin (Perkin-Elmer Catalog# AD0062). The assay buffer consisted of 20 mM HEPES (pH 7.15), 0.1 mM DTT, 10 mM MgCl2, 0.5 mg/ml BSA with 3% Kinase Stabilizer (Fremont Biosolutions, Catalog # STB-K02). After 1 h, the reaction mixture from above was diluted 10 fold in assay buffer to make 5 nM BTK: 1 nM Eu-Streptavidin complex (donor fluorophore). […] of a mixture of 0.11 nM BTK-Eu and 0.11 nM Kinase Tracer 178 (Invitrogen, Catalog # PV5593,) with BTK-Eu alone as no negative control, was then dispensed into 384-well flat bottom plates (Greiner, 784076). Compounds to be tested in assay were prepared as 10× concentrations and serial dilution in half-log increments was performed in DMSO so as to generate 10 point curves. To initiate the FRET reaction, compounds prepared as 10× stock in DMSO was added to the plates and the plates were incubated 18-24 h at 14° C.
After the incubation the plates were read on a BMG Pherastar Fluorescent plate reader (or equivalent) and used to measure the emission energy from the europium donor fluorophore (620 nm emission) and the FRET (665 nm emission). The negative control well values were averaged to obtain the mean minimum. The positive “no inhibitor” control wells were averaged to obtain the mean maximum. Percent of maximal FRET was calculated using following equation:
% max FRET=100×[(FSRcmpd−FSRmean min)/(FSRmean max−FSRmean min)]
where FSR=FRET Signal ratio. % Max FRET curves were plotted in Activity Base (Excel) and the IC50(%), hill slope, z′ and % CV were determined. The mean IC50 and standard deviation will be derived from duplicate curves (singlet inhibition curves from two independent dilutions) using Microsoft Excel.
(In general: Time-resolved FRET reads energy transfer from a long-lived donor to a nearby acceptor.)

Bruton's Tyrosine Kinase, sequence (Q06187 whole entry): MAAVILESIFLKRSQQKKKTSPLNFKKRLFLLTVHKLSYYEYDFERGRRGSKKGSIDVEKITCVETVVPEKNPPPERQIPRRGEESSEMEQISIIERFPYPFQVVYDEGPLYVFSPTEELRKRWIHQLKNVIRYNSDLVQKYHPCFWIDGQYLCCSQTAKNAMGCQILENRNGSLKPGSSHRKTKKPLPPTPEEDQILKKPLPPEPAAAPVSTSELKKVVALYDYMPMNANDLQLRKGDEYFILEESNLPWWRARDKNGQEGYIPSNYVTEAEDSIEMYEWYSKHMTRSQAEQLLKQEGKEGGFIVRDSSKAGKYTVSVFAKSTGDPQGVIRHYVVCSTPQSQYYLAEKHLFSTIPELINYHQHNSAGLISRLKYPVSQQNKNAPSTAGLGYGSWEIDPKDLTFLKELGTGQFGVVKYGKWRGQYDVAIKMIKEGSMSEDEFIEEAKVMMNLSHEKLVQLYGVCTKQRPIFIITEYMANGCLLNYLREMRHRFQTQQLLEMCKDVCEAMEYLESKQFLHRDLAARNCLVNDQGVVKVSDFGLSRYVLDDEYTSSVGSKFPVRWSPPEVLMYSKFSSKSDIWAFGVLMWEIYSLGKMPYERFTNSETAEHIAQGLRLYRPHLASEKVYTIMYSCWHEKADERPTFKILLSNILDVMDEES

Broadly, the IC50 is the concentration needed to halve the response being measured. Regarding `Cn1cc(-c2cc3c(-c4ccc(CNC(=O)c5ccc(C(C)(C)O)cc5)c(F)c4)ncnc3[nH]2)cn1` [Compound I-38, N-{2-Fluoro-4-[6-(1-methyl-1H-pyrazol-4-yl)-7H-pyrrolo[2,3-d]pyrimidin-4-yl]-benzyl}-4-(1-hydroxy-1-methyl-ethyl)-benzamide], the IC50 in test [1] stood at 3270 nM; in test [2], 3 nM.

As to `Cn1cc(-c2cc3c(-c4ccc(CN5Cc6cc(C(C)(C)C)sc6C5=O)c(F)c4)ncnc3[nH]2)cn1` [Compound I-33, 2-tert-Butyl-5-{2-fluoro-4-[6-(1-methyl-1H-pyrazol-4-yl)-7H-pyrrolo[2,3-d]pyrimidin-4-yl]-benzyl}-4,5-dihydro-thieno[2,3-c]pyrrol-6-one], the IC50 in test [1] was found to be 129 nM; in test [2], 1 nM.

`Cn1cc(-c2cc3c(-c4ccc(CNC(=O)c5ccc(C6CC6)cc5)cc4)ncnc3[nH]2)cn1` [Compound I-22, 4-Cyclopropyl-N-{4-[6-(1-methyl-1H-pyrazol-4-yl)-7H-pyrrolo[2,3-d]pyrimidin-4-yl]-benzyl}-benzamide]: the IC50 in test [1] is 5480 nM; in test [2], 8 nM.

Take `Cn1cc(-c2cc3c(-c4ccc(CNC(=O)c5ccc(C(C)(C)C)cc5)cc4)ncnc3[nH]2)cn1` [Compound I-21, 4-tert-Butyl-N-{4-[6-(1-methyl-1H-pyrazol-4-yl)-7H-pyrrolo[2,3-d]pyrimidin-4-yl]-benzyl}-benzamide]: the IC50 in test [1] amounted to 1400 nM; in test [2] it was 7 nM.

Turning to `Cn1cc(-c2cc3c(-c4ccc(CNC(=O)c5cc6n(n5)CCCC6)c(F)c4)ncnc3[nH]2)cn1` [Compound I-47, N-(2-fluoro-4-(6-(1-methyl-1H-pyrazol-4-yl)-7H-pyrrolo[2,3-d]pyrimidin-4-yl)benzyl)-4,5,6,7-tetrahydropyrazolo[1,5-a]pyridine-2-carboxamide], the IC50 in test [1] was 674 nM; in test [2], 3.2 nM.

`CN(C)CCn1cc(-c2cc3c(-c4ccc(CNC(=O)N5CC(OC(C)(C)C)C5)c(F)c4)ncnc3[nH]2)cn1` [Compound I-43, 3-tert-Butoxy-azetidine-1-carboxylic acid 4-{6-[1-(2-dimethylamino-ethyl)-1H-pyrazol-4-yl]-7H-pyrrolo[2,3-d]pyrimidin-4-yl}-2-fluoro-benzylamide]: the figures for the IC50 in test [1] and in test [2] were 276 nM and 0.6 nM, respectively.

Take `Cn1cc(-c2cc3c(-c4ccc(CNC(=O)N5Cc6ccccc6C5)c(F)c4)ncnc3[nH]2)cn1` [Compound I-41, 1,3-Dihydro-isoindole-2-carboxylic acid 2-fluoro-4-[6-(1-methyl-1H-pyrazol-4-yl)-7H-pyrrolo[2,3-d]pyrimidin-4-yl]-benzylamide]: the IC50 came to 154 nM in test [1] and 0.6 nM in test [2].

With `Cn1cc(-c2cc3c(-c4ccc(CNC(=O)c5ccc(C6(C)COC6)cc5)c(F)c4)ncnc3[nH]2)cn1` [Compound I-35, N-{2-Fluoro-4-[6-(1-methyl-1H-pyrazol-4-yl)-7H-pyrrolo[2,3-d]pyrimidin-4-yl]-benzyl}-4-(3-methyl-oxetan-3-yl)-benzamide], the IC50 stood at 5500 nM in test [1] and 8 nM in test [2].

Turning to `Cc1ccc(C(=O)NCc2ccc(-c3ncnc4[nH]c(-c5cnn(C)c5)cc34)cc2F)s1` [Compound I-29, 5-Methyl-thiophene-2-carboxylic acid 2-fluoro-4-[6-(1-methyl-1H-pyrazol-4-yl)-7H-pyrrolo[2,3-d]pyrimidin-4-yl]-benzylamide], the IC50 came to 470 nM in test [1] and 3 nM in test [2].

For `Cn1cc(-c2cc3c(-c4ccc(CNC(=O)c5cc(C(C)(C)C)on5)c(F)c4)ncnc3[nH]2)cn1` [Compound I-34, 5-tert-Butyl-isoxazole-3-carboxylic acid 2-fluoro-4-[6-(1-methyl-1H-pyrazol-4-yl)-7H-pyrrolo[2,3-d]pyrimidin-4-yl]-benzylamide], the results for the IC50 in test [1] and in test [2] were 76 nM and 0.2 nM, respectively.

Regarding `CN(C)CCn1cc(-c2cc3c(-c4ccc(CNC(=O)N5Cc6ccccc6C5)c(F)c4)ncnc3[nH]2)cn1` [Compound I-44, 1,3-Dihydro-isoindole-2-carboxylic acid 4-{6-[1-(2-dimethylamino-ethyl)-1H-pyrazol-4-yl]-7H-pyrrolo[2,3-d]pyrimidin-4-yl}-2-fluoro-benzylamide], the IC50 in test [1] stood at 188 nM; in test [2] it was 0.52 nM.

In the case of `Cn1cc(-c2cc3c(-c4ccc(CNC(=O)c5cc6c(s5)CCCC6)c(F)c4)ncnc3[nH]2)cn1` [Compound I-37, 4,5,6,7-Tetrahydro-benzo[b]thiophene-2-carboxylic acid 2-fluoro-4-[6-(1-methyl-1H-pyrazol-4-yl)-7H-pyrrolo[2,3-d]pyrimidin-4-yl]-benzylamide], the values for the IC50 in test [1] and in test [2] were 655 nM and 0.3 nM, respectively.

As to `Cn1cc(-c2cc3c(-c4ccc(CNC(=O)c5ccc(C(C)(C)C)nc5)c(F)c4)ncnc3[nH]2)cn1` [Compound I-28, 6-tert-Butyl-N-{2-fluoro-4-[6-(1-methyl-1H-pyrazol-4-yl)-7H-pyrrolo[2,3-d]pyrimidin-4-yl]-benzyl}-nicotinamide], the results for the IC50 in test [1] and in test [2] were 2540 nM and 4 nM, respectively.

On to `Cn1cc(-c2cc3c(N4CCC(CNC(=O)c5ccc(C(C)(C)C)cc5)CC4)ncnc3[nH]2)cn1` [Compound I-20, 4-tert-Butyl-N-{1-[6-(1-methyl-1H-pyrazol-4-yl)-7H-pyrrolo[2,3-d]pyrimidin-4-yl]-piperidin-4-ylmethyl}-benzamide], for which the IC50 in test [1] came to 3000 nM; in test [2], 62 nM.

As to `CN(Cc1ccc(-c2ncnc3[nH]c(-c4cnn(C)c4)cc23)cc1F)C(=O)c1ccc(C(C)(C)C)cc1` [Compound I-31, 4-tert-Butyl-N-{2-fluoro-4-[6-(1-methyl-1H-pyrazol-4-yl)-7H-pyrrolo[2,3-d]pyrimidin-4-yl]-benzyl}-N-methyl-benzamide], the IC50 in test [1] was determined as 6050 nM; in test [2], 20 nM.

For `CC(C)c1ccc(C(=O)NCc2ccc(-c3ncnc4[nH]c(-c5cnn(C)c5)cc34)cc2)cc1` [Compound I-23, 4-Isopropyl-N-{4-[6-(1-methyl-1H-pyrazol-4-yl)-7H-pyrrolo[2,3-d]pyrimidin-4-yl]-benzyl}-benzamide], the IC50 came out at 1400 nM in test [1] and 7 nM in test [2].

Consider `CNC(=O)c1cc2c(-c3ccc(CNC(=O)c4ccc(C(C)(C)C)cc4)c(F)c3)ncnc2[nH]1` [Compound I-17, 4-{4-[(4-tert-Butyl-benzoylamino)-methyl]-3-fluoro-phenyl}-7H-pyrrolo[2,3-d]pyrimidine-6-carboxylic acid methylamide], for which the results for the IC50 in test [1] and in test [2] were 16200 nM and 98 nM, respectively.

As for `Cn1cc(-c2cc3c(-c4ccc(CNC(=O)c5cc(C(C)(C)C)no5)c(F)c4)ncnc3[nH]2)cn1` [Compound I-39, 3-tert-Butyl-isoxazole-5-carboxylic acid 2-fluoro-4-[6-(1-methyl-1H-pyrazol-4-yl)-7H-pyrrolo[2,3-d]pyrimidin-4-yl]-benzyl amide], the values for the IC50 in test [1] and in test [2] were 28 nM and 0.2 nM, respectively.
